Test results taken from US6046169A, “Inhibitors of factor XA” (COR Therapeutics, Inc., priority 1995, dated 2000).
Square brackets hold non-standard residues; d marks the D form. Peptide text beside a SMILES is read from it. * marks the point of attachment. Boc = CC(C)(C)OC(=O)*

Legend:
rabbit venous thrombosis [1] = test: Rabbit deep vein thrombosis model; details: bolus + infusion, doses 200 + 1.98 to 1500 + 14.85 μg/kg + μg/kg/min
[2] = system: coagulation parameters (aPTT, PT, FIB)
in vivo = details: rabbit, iv
[3] = rabbit, in vivo, iv, 2 mg/kg
cuticle bleeding time = test: Cuticle Bleeding Time model in rabbits; assay type: in vivo, rabbit; details: 1500 μg/kg+14.85 μg/kg/min
Description: In an ancillary study, a Cuticle Bleeding Time model was used to evaluate the effect of test compounds on bleeding time (BT) measurements in rabbits. The standardized protocol involved anesthesia and catheterization of rabbits as previously described in this Example 43. To measure BT, a toe nail was cut 5 mm from the base of the cuticle with a canine nail trimming device. Time until cessation of bleeding was recorded by wicking the blood on to BT blotting paper in 30 second intervals. Test compound was administered as a bolus followed by infusion regimen. Two BT measurements were obtained prior to administration of test compound and three BT measurements accomplished serially after initiation of steady state infusion of test compound. BT measurements were allowed to continue for up to 30 minutes at which time it was stopped with application of silver nitrate. Blood samples were obtained just prior to all BT measurements and processed for measurement of hematological and coagulation parameters.

rabbit venous thrombosis [4] = details: in vivo

CC(C)(C)OC(=O)N[C@H](CCCNC(=N)N)C(=O)NCC(=O)N[C@H](C=O)CCCNC(=N)N [Boc--D-Arg--Gly--Arg--H, Boc-D-Arg-Gly-Arg-H] (Boc-[dR]-Gly-Arg-aldehyde)
antithrombotic efficacy in the rabbit venous thrombosis model (rabbit venous thrombosis [1]): antithrombotic efficacy at the higher doses evaluated | FIB prolongation ([2]; rabbits, I.V. bolus 2.0 mg/kg): 1.07 fold | PT prolongation ([2]; rabbits, I.V. bolus 2.0 mg/kg): 1.15 fold | aPTT prolongation as compared to pretreatment values ([2]; rabbits, I.V. bolus 2.0 mg/kg): 2.45 fold | anticoagulative effect ([2]; rabbits, I.V. bolus 2.0 mg/kg): plasma concentration-dependent anticoagulative effect

CC(C)(C)OC(=O)N[C@H](CCCN=C(N)N)C(=O)NCC(=O)N[C@H](C=O)CCCN=C(N)N [Boc--D-Arg--Gly--Arg--H, Boc-D-Arg-Gly-Arg-H] (Boc-[dR]-Gly-Arg-aldehyde)
half-life (in vivo): 1.18 h | Vd (in vivo; 2 mg/kg): 0.118 L/kg | peak plasma concentration by HPLC [3]: 3.78 µg/mL | changes in hematological parameters from pre to post administration (cuticle bleeding time; cuticle BT experiments): no significant changes | increase of cuticle BT from pre-administration baseline (cuticle bleeding time; rabbits, n=4, ±1.26): 2.14 fold | effects on hematological parameters as compared to saline controls (rabbit venous thrombosis [4]): no significant effects | changes in hematological parameters as compared to saline controls ([2]; rabbit, in vivo, iv, 2 mg/kg): no significant changes
